Values of other authors, collected in patent publication US20090023668A1, “Method for treating blepharitis” (priority 2006, published 2009).

Conditions: administered to an ocular area at a concentration of 0.1%

SMILES: C[C@@H]1C[C@H]2[C@@H]3CCC4=CC(=O)C=C[C@]4(C)[C@@]3(F)[C@@H](O)C[C@]2(C)[C@@]1(O)C(=O)CO [dexamethasone]
- effect on intraocular pressure: can result in an increase in intraocular pressure
